Results published in paper PMC10978636, “Hydroxy(phenyl)pyruvic acid reductase in Actaea racemosa L.: a putative enzyme in cimicifugic and fukinolic acid biosynthesis” (Planta, 2024).

System: ArH(P)PR
Experiment: photometric NAD(P)H oxidation at […] nm, Michaelis-Menten fit
Assay type: biochemical, Actaea racemosa
Conditions: 0.1 M KPi pH 7.5
[1] = co-substrate concentration not in main text (Suppl. Table S3)

O=C(O)C(=O)Cc1ccc(O)c(O)c1 [DHPP, 3,4-dihydroxyphenylpyruvic acid] gave a Km (1 mM NADPH) of 24000 ± 4650 µM.

Compound NC(=O)C1=CN([C@@H]2O[C@H](COP(=O)(O)OP(=O)(O)OC[C@H]3O[C@@H](n4cnc5c(N)ncnc54)[C@H](O)[C@@H]3O)[C@@H](O)[C@H]2O)C=CC1 [NADH] has a Km [1] of 660 ± 90 µM.

For NC(=O)C1=CN([C@@H]2O[C@H](COP(=O)(O)OP(=O)(O)OC[C@H]3O[C@@H](n4cnc5c(N)ncnc54)[C@H](OP(=O)(O)O)[C@@H]3O)[C@@H](O)[C@H]2O)C=CC1 [NADPH], the Km [1] was 23 ± 4 µM.

For CC(=O)C(=O)O [P, pyruvic acid], the Km (1 mM NADPH) was 1890 ± 510 µM.

Work on O=C(O)C(=O)Cc1ccccc1 [PP, phenylpyruvic acid] yielded a Km (1 mM NADPH) of 5320 ± 2770 µM.

O=C(O)C(=O)Cc1ccc(O)cc1 [pHPP, 4-hydroxyphenylpyruvic acid] showed a Km (1 mM NADPH) of 1130 ± 120 µM.

O=C(O)C(=O)CO [β-HP, β-hydroxypyruvic acid] was tested, and the Km (1 mM NADPH, error is SEM, substrate inhibition above 1 mM) was 260 ± 120 µM.
